# Test results published in US11339171B2, “MDM2 inhibitors” (Gan & Lee Pharmaceuticals, priority 2017, dated 2022).
# Legend:
# [1] = test system: human osteosarcoma cell line SJSA-1; assay: Inhibition of proliferation of human osteosarcoma cell line SJSA-1 (DAPI staining, In Cell Analyzer); conditions: for inhibitory effect on human osteosarcoma cell line SJSA-1 compared with positive control compound HDM201: labels are Example numbers, the compounds with S-configuration are meant
# MDM2 = molecular target: T1, MDM2 (Homo sapiens, UniProt Q00987); assay: Inhibition test of MDM2-P53 (GST-MDM2, Biotin-P53, Anti-GST-Tb, SA-XL665); assay type: binding; conditions: for inhibitory effect on MDM2 compared with positive control compound HDM201: labels are Example numbers, the compounds with S-configuration are meant
# T1 construct: made in house
# Procedure, shortened: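 HTRF-type assay using 4 nM GST-MDM2 (final), Biotin-P53, SA-XL665 and anti-GST-Tb in PBS with 0.1% BSA, 5 mM DTT and 1 mM AEBSF. Compounds in 5-fold serial dilutions over twelve points; incubation 90 min at 25° C with shaking before plate-reader read-out.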
# T1 sequence (Q00987 whole entry): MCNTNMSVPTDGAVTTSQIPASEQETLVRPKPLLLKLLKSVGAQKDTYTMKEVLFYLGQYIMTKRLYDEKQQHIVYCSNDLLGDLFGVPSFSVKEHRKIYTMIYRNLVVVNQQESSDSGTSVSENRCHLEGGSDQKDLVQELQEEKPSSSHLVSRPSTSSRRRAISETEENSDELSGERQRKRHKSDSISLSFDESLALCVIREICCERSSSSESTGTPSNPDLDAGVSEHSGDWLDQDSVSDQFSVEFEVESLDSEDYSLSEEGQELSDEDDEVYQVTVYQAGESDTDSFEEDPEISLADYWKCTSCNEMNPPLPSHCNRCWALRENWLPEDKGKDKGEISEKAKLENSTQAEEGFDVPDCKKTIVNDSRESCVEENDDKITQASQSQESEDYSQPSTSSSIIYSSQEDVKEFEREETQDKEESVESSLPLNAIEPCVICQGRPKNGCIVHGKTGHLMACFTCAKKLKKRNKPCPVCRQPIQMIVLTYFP
SMILES,inhibitory effect on human osteosarcoma cell line SJSA-1 compared with positive control compound HDM201 [1],inhibitory effect on MDM2 compared with positive control compound HDM201 (MDM2),"IC50 ([1]; Homo sapiens, SJSA-1, 72 h, read-out: IC50 (nM), inhibitory activity on proliferation of human osteosarcoma cell line SJSA-1, SJSA-1, incubated 72 h)",IC50 (MDM2)
"COc1cc(N)c(C)cc1-c1nc2c(n1C(C)C)C1(C(=O)Nc3cc(Cl)ccc31)N(c1cc(Cl)ccc1C)C2=O (stereo not shown) [Example 74, 2′-(4-amino-2-methoxy-5-methylphenyl)-6-chloro-5′-(5-chloro-2-methylphenyl)-3′-isopropyl-3′H-spiro[dihydroindole-3,4′-pyrrolo[3,4-d]imidazole]-2,6′(5′H)-dione]",better,better,,
"COc1cc(N)c(F)cc1-c1nc2c(n1C(C)C)C1(C(=O)Nc3cc(Cl)ccc31)N(c1cc(Cl)ccc1C)C2=O (stereo not shown) [Example 75, 2′-(4-amino-5-fluoro-2-methoxyphenyl)-6-chloro-5′-(5-chloro-2-methylphenyl)-3′-isopropyl-3′H-spiro[dihydroindole-3,4′-pyrrolo[3,4-d]imidazole]-2,6′(5′H)-dione]",better,better,,
COc1cc(N(C)C)c(F)cc1-c1nc2c(n1C(C)C)C1(C(=O)Nc3cc(Cl)ccc31)N(c1cc(Cl)ccc1C)C2=O (stereo not shown) [Example 78],better,better,,
"COc1nc(N(C)C)ncc1-c1nc2c(n1C(C)C)C1(C(=O)Nc3cc(Cl)ccc31)N(c1cc(Cl)ccc1C)C2=O (stereo not shown) [Example 82, 6-chloro-5′-(5-chloro-2-methylphenyl)-2′-(2-(dimethylamino)-4-methoxypyrimidin-5-yl)-3′-isopropyl-3′H-spiro[dihydroindole-3,4′-pyrrolo[3,4-d]imidazole]-2,6′(5′H)-dione]",better,better,,
"COc1ccc(C(=O)O)cc1-c1nc2c(n1C(C)C)C1(C(=O)Nc3cc(Cl)ccc31)N(c1cc(Cl)ccc1C)C2=O (stereo not shown) [Example 84, 3-(6-chloro-5′-(5-chloro-2-methylphenyl)-3′-isopropyl-2,6′-dioxo-5′,6′-dihydro-3′H-spiro[dihydroindole-3,4′-pyrrolo[3,4-d]imidazole]-2′-yl)-4-methoxybenzoic acid]",,,2610 nM,0.00378 µM
"COc1cc(OC)c(-c2nc3c(n2C(C)C)C2(C(=O)Nc4cc(Cl)ccc42)N(c2cc(Cl)ccc2C)C3=O)cc1F (stereo not shown) [Example 92, 6-chloro-5′-(5-chloro-2-methylphenyl)-2′-(5-fluoro-2,4-dimethoxyphenyl)-3′-isopropyl-3′H-spiro[dihydroindole-3,4′-pyrrolo[3,4-d]imidazole]-2,6′(5′H)-dione]",better,better,,
"CCOc1cc(OC)c(-c2nc3c(n2C(C)C)C2(C(=O)Nc4cc(Cl)ccc42)N(c2cc(Cl)cnc2C)C3=O)cn1 (stereo not shown) [Example 96, 6-chloro-5′-(5-chloro-2-methylpyridin-3-yl)-2′-(6-ethoxy-4-methoxypyridin-3-yl)-3′-isopropyl-3′H-spiro[dihydroindole-3,4′-pyrrolo[3,4-d]imidazole]-2,6′(5′H)-dione]",better,better,,
"CCOc1cc(OC)c(-c2nc3c(n2C(C)C)C2(C(=O)Nc4cc(Cl)ccc42)N(c2cc(Cl)ccc2F)C3=O)cn1 (stereo not shown) [Example 98, 6-chloro-5′-(5-chloro-2-fluorophenyl)-2′-(6-ethoxy-4-methoxypyridin-3-yl)-3′-isopropyl-3′H-spiro[dihydroindole-3,4′-pyrrolo[3,4-d]imidazole]-2,6′(5′H)-dione]",better,better,,
